Assay results from the NIST ThermoML archive (doi:10.1021/je900387e).

Experiment: xn = mol fraction of the nth substance listed
Settings: Liquid, Pycnometric method

Cn1ccnc1 [1-methylimidazole] + O=C=O
mass density [kg/m3]
Settings	332.4 K	337.4 K
13050 kPa, x1 = 0.0102	–	568
13150 kPa, x1 = 0.0102	–	576
13270 kPa, x1 = 0.0102	–	584
13350 kPa, x1 = 0.0102	600	–
13370 kPa, x1 = 0.0102	–	593
13490 kPa, x1 = 0.0102	–	601
13550 kPa, x1 = 0.0247	668	–
13560 kPa, x1 = 0.0102	612	–
13620 kPa, x1 = 0.0102	–	610
13730 kPa, x1 = 0.0247	675	–
13770 kPa, x1 = 0.0102	–	619
13790 kPa, x1 = 0.0102	623	–
13890 kPa, x1 = 0.0247	681	–
13910 kPa, x1 = 0.0102	–	628
13960 kPa, x1 = 0.0247	684	–
14040 kPa, x1 = 0.0102	636	–
14080 kPa, x1 = 0.0102	–	638
14140 kPa, x1 = 0.0247	690	–
14240 kPa, x1 = 0.0102	–	648
14320 kPa, x1 = 0.0102	649	–
14330 kPa, x1 = 0.0247	696	–
14430 kPa, x1 = 0.0102	–	658
14490 kPa, x1 = 0.0247	–	650
14520 kPa, x1 = 0.0247	703	–
14560 kPa, x1 = 0.0247	–	653
14630 kPa, x1 = 0.0102	–	669
14640 kPa, x1 = 0.0102	663	–
14660 kPa, x1 = 0.0247	–	658
14740 kPa, x1 = 0.0247	709	–
14780 kPa, x1 = 0.0247	–	662
14850 kPa, x1 = 0.0102	–	680
14900 kPa, x1 = 0.0247	–	666
14970 kPa, x1 = 0.0247	716	–
15020 kPa, x1 = 0.0247	–	671
15030 kPa, x1 = 0.0102	677	–
15080 kPa, x1 = 0.0102	–	691
15140 kPa, x1 = 0.0247	–	675
15220 kPa, x1 = 0.0247	723	–
15270 kPa, x1 = 0.0247	–	680
15350 kPa, x1 = 0.0102	–	703
15420 kPa, x1 = 0.0247	–	684
15450 kPa, x1 = 0.0487	779	–
15480 kPa, x1 = 0.0102	692	–
15480 kPa, x1 = 0.0247	730	–
15560 kPa, x1 = 0.0247	–	689
15710 kPa, x1 = 0.0487	784	–
15730 kPa, x1 = 0.0247	–	693
15740 kPa, x1 = 0.0102	–	719
15750 kPa, x1 = 0.0247	737	–
15880 kPa, x1 = 0.0247	–	698
15920 kPa, x1 = 0.0487	789	–
15960 kPa, x1 = 0.0247	742	–
15970 kPa, x1 = 0.0102	707	–
16050 kPa, x1 = 0.0247	–	703
16080 kPa, x1 = 0.0102	–	732
16130 kPa, x1 = 0.0487	794	–
16190 kPa, x1 = 0.0247	747	–
16230 kPa, x1 = 0.0247	–	708
16260 kPa, x1 = 0.0487	797	–
16390 kPa, x1 = 0.0487	799	–
16410 kPa, x1 = 0.0247	–	713
16430 kPa, x1 = 0.0247	752	–
16450 kPa, x1 = 0.0102	–	745
16520 kPa, x1 = 0.0487	801	–
16570 kPa, x1 = 0.0102	723	–
16600 kPa, x1 = 0.0487	–	768
16610 kPa, x1 = 0.0247	–	717
16640 kPa, x1 = 0.0487	–	769
16650 kPa, x1 = 0.0487	804	–
16720 kPa, x1 = 0.0247	758	–
16730 kPa, x1 = 0.0487	–	770
16830 kPa, x1 = 0.0487	806	–
16840 kPa, x1 = 0.0102	–	759
16850 kPa, x1 = 0.0487	–	773
16890 kPa, x1 = 0.0247	–	724
16910 kPa, x1 = 0.0247	762	–
16960 kPa, x1 = 0.0487	–	775
16970 kPa, x1 = 0.0487	809	–
17070 kPa, x1 = 0.0487	–	777
17090 kPa, x1 = 0.0247	766	–
17130 kPa, x1 = 0.0487	811	–
17170 kPa, x1 = 0.0487	–	780
17190 kPa, x1 = 0.0247	–	731
17260 kPa, x1 = 0.0102	740	–
17260 kPa, x1 = 0.0487	814	–
17290 kPa, x1 = 0.0487	–	782
17300 kPa, x1 = 0.0102	–	773
17300 kPa, x1 = 0.0247	770	–
17410 kPa, x1 = 0.0487	–	784
17440 kPa, x1 = 0.0487	817	–
17450 kPa, x1 = 0.0247	–	737
17510 kPa, x1 = 0.0247	774	–
17520 kPa, x1 = 0.1024	890	–
17560 kPa, x1 = 0.0487	–	787
17590 kPa, x1 = 0.0487	819	–
17680 kPa, x1 = 0.0247	–	742
17680 kPa, x1 = 0.0487	–	789
17680 kPa, x1 = 0.1024	892	–
17730 kPa, x1 = 0.1024	892	–
17750 kPa, x1 = 0.0487	821	–
17800 kPa, x1 = 0.0247	779	–
17800 kPa, x1 = 0.1024	893	–
17810 kPa, x1 = 0.0487	–	791
17820 kPa, x1 = 0.0102	–	788
17890 kPa, x1 = 0.1024	894	–
17920 kPa, x1 = 0.0487	824	–
17940 kPa, x1 = 0.0487	–	794
17960 kPa, x1 = 0.1024	895	–
18040 kPa, x1 = 0.1024	896	–
18060 kPa, x1 = 0.0102	757	–
18060 kPa, x1 = 0.0247	–	749
18090 kPa, x1 = 0.0487	–	797
18090 kPa, x1 = 0.1024	896	–
18120 kPa, x1 = 0.0487	827	–
18150 kPa, x1 = 0.1024	897	–
18200 kPa, x1 = 0.0102	–	798
18200 kPa, x1 = 0.1024	897	–
18210 kPa, x1 = 0.0487	–	799
18250 kPa, x1 = 0.1024	898	–
18280 kPa, x1 = 0.0487	829	–
18310 kPa, x1 = 0.1024	899	–
18350 kPa, x1 = 0.0487	–	800
18400 kPa, x1 = 0.1024	900	–
18470 kPa, x1 = 0.1024	900	–
18480 kPa, x1 = 0.0487	832	–
18510 kPa, x1 = 0.0487	–	804
18530 kPa, x1 = 0.1024	901	–
18580 kPa, x1 = 0.1024	901	–
18610 kPa, x1 = 0.0102	–	808
18620 kPa, x1 = 0.0102	769	–
18620 kPa, x1 = 0.1024	902	–
18670 kPa, x1 = 0.0487	835	806
18690 kPa, x1 = 0.1024	902	–
18750 kPa, x1 = 0.1024	903	–
18810 kPa, x1 = 0.0102	–	813
18820 kPa, x1 = 0.0487	–	809
18860 kPa, x1 = 0.0102	773	–
18860 kPa, x1 = 0.0487	837	–
18860 kPa, x1 = 0.1024	904	–
18940 kPa, x1 = 0.1024	905	–
18990 kPa, x1 = 0.0487	–	811
19040 kPa, x1 = 0.0487	840	–
